Data from US9708336B2, “Metallo-beta-lactamase inhibitors” (priority 2014, dated 2017).
Where two headings read alike, the source gives them in different places.

Experiments:
VIM-1 = VIM-1 (Pseudomonas aeruginosa (strain ATCC 15692 / DSM 22644 / CIP 104116 / JCM 14847 / LMG 12228 / 1C / PRS 101 / PAO1), UniProt A0A0F7KYQ8); assay: Enzyme activity: determination of IC50, fluorescence assay with CCF2-FA substrate (VIM-1); format: biochemical
NDM-1 = NDM-1 (Klebsiella pneumoniae, UniProt C7C422); assay: biochemical; format: biochemical; conditions: read-out: NDM-1 IC50
[1] = test system: Klebsiella pneumoniae expressing VIM-1 (IHMA599644); assay: Antibiotic potentiation activity: synergistic concentration (MITC95) with imipenem, OD600 growth; format: cell-based; conditions: for Klebsiella pneumoniae expressing VIM-1 (IHMA 599644) MITC95: concentration giving 95% inhibition of bacterial growth
In short: (§1)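 Bacteria were grown overnight on agar at 35 °C, diluted 1:100 from saline into 1.1× CAMHB, then given compound with or without imipenem (4 μg/ml in assay, optionally 1 μg/ml). Endpoint: absorbance at 22–24 h.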

[2] = test system: Serratia marcescens expressing IMP-1 (CL5741); assay: as above; format: cell-based; conditions: for Serratia marcescens expressing IMP-1 (CL5741) MITC95: concentration giving 95% inhibition of bacterial growth
In short: as §1

[3] = test system: Escherichia coli expressing NDM-1 (CLB30016); assay: as above; format: cell-based; conditions: for Escherichia coli expressing NDM-1 (CLB 30016) MITC95: concentration giving 95% inhibition of bacterial growth
In short: as §1

IMP-1 = IMP-1 (Serratia marcescens, UniProt P52699); assay: biochemical; format: biochemical; conditions: read-out: IMP-1 IC50
[4] = fluorescence assay with CCF2-FA substrate, read-out: VIM-1 IC50
[5] = fluorescence assay with CCF2-FA substrate
[6] = IHMA599644 (VIM-1), 95% inhibition of bacterial growth
[7] = CL5741 (IMP-1), 95% inhibition of bacterial growth
[8] = CLB30016 (NDM-1), 95% inhibition of bacterial growth
[9] = VIM-1 IC50, VIM-1 enzyme, CCF2-FA substrate
[10] = NDM-1 enzyme, CCF2-FA substrate
[11] = Klebsiella pneumoniae IHMA599644 (VIM-1), 95% growth inhibition
[12] = Serratia marcescens CL5741 (IMP-1), 95% growth inhibition
[13] = (CLB30016, NDM-1), 95% growth inhibition
[14] = IMP-1 enzyme, CCF2-FA substrate
[15] = VIM-1 enzyme, CCF2-FA substrate, read-out: VIM-1 IC50
[16] = VIM-1 enzyme, CCF2-FA fluorescence assay, read-out: VIM-1 IC50
[17] = NDM-1 enzyme, CCF2-FA fluorescence assay
[18] = Klebsiella pneumoniae expressing VIM-1 (IHMA599644), 95% growth inhibition
[19] = Serratia marcescens expressing IMP-1 (CL5741), 95% growth inhibition
[20] = Escherichia coli expressing NDM-1 (CLB30016), 95% growth inhibition
[21] = IMP-1 enzyme, CCF2-FA fluorescence assay

Sequence of NDM-1 (C7C422 whole entry, looked up, species assumed): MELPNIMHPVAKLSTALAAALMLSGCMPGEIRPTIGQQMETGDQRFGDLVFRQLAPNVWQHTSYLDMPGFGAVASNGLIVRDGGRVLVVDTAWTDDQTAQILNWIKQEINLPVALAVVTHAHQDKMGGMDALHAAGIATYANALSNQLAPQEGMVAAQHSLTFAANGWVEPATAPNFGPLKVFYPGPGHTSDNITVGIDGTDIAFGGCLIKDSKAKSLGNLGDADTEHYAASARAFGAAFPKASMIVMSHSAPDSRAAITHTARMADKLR
Sequence of IMP-1 (P52699 whole entry, looked up): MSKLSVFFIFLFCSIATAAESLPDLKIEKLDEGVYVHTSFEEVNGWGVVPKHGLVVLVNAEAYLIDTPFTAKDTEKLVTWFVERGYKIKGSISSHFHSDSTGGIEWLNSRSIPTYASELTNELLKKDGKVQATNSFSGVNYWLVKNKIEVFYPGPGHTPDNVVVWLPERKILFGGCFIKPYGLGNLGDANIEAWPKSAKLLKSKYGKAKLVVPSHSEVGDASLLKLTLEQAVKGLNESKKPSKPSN

NC1CCC(N2CCC(c3ccc(-c4ccc(C(F)(F)F)c(S(N)(=O)=O)c4-c4nnn[nH]4)cc3)CC2)CC1 (stereo not drawn) [Example 794, 4′-[1-(4-aminocyclohexyl)piperidin-4-yl]-2-(1H-tetrazol-5-yl)-4-(trifluoromethyl)biphenyl-3-sulfonamide]
IC50 (VIM-1; [4]): 11 nM
IC50 (NDM-1; [5]): 6.44 nM
Klebsiella pneumoniae MITC95 [1, 6]: 50 µM
Serratia marcescens MITC95 [2, 7]: 3.125 µM
Escherichia coli MITC95 [3, 8]: 1.563 µM
IC50 (IMP-1; [5]): 1.76 nM

NC[C@H]1CC[C@@H](Cc2ccc(-c3ccc(C4CNC4)cc3)c(-c3nnn[nH]3)c2S(N)(=O)=O)CC1 [Example 602, 4-(((1s,4s)-4-(aminomethyl)cyclohexyl)methyl)-4′-(azetidin-3-yl)-2-(1H-tetrazol-5-yl)-[1,1′-biphenyl]-3-sulfonamide]
IC50 (VIM-1; [9]): 2.47 nM
IC50 (NDM-1; [10]): 3.95 nM
Klebsiella pneumoniae MITC95 [1, 11]: 1.563 µM
Serratia marcescens MITC95 [2, 12]: 3.125 µM
Escherichia coli MITC95 [3, 13]: 1.563 µM
IC50 (IMP-1; [14]): 21 nM

Nc1ncc2cccc(-c3ccc(C(F)(F)F)c(S(N)(=O)=O)c3-c3nn[nH]n3)c2n1 [Example 558, 3-(2-aminoquinazolin-8-yl)-2-(2H-tetrazol-5-yl)-6-(trifluoromethyl)benzenesulfonamide]
IC50 (VIM-1; [15]): 0.178 nM
IC50 (NDM-1; [10]): 0.145 nM
Klebsiella pneumoniae MITC95 [1, 11]: 6.25 µM
Serratia marcescens MITC95 [2, 12]: 6.25 µM
Escherichia coli MITC95 [3, 13]: 6.25 µM
IC50 (IMP-1; [14]): 1.96 nM

NS(=O)(=O)c1cccc(-c2ccc3cnccc3c2)c1-c1nnn[nH]1 [Example 408, 3-(6-isoquinolyl)-2-(1H-tetrazol-5-yl)benzenesulfonamide]
IC50 (VIM-1; [16]): 14.9 nM
IC50 (NDM-1; [17]): 1.38 nM
Klebsiella pneumoniae MITC95 [1, 18]: 75 µM
Serratia marcescens MITC95 [2, 19]: 4.688 µM
Escherichia coli MITC95 [3, 20]: 0.3906 µM
IC50 (IMP-1; [21]): 84.3 nM

NS(=O)(=O)c1cccc(-c2ccc3nccnc3c2)c1-c1nnn[nH]1 [Example 405, 3-quinoxalin-6-yl-2-(1H-tetrazol-5-yl)benzenesulfonamide]
IC50 (VIM-1; [16]): 16.9 nM
IC50 (NDM-1; [17]): 4.23 nM
Klebsiella pneumoniae MITC95 [1, 18]: 62.5 µM
Serratia marcescens MITC95 [2, 19]: 1.563 µM
Escherichia coli MITC95 [3, 20]: 1.563 µM
IC50 (IMP-1; [21]): 67.6 nM

NS(=O)(=O)c1nccc(N2CCC(c3cnc4n3CCCC4)CC2)c1-c1nnn[nH]1 [Example 225, 4-[4-(5,6,7,8-tetrahydroimidazo[1,2-a]pyridin-3-yl)piperidin-1-yl]-3-(1H-tetrazol-5-yl)pyridine-2-sulfonamide]
IC50 (VIM-1; [4]): 226 nM
IC50 (NDM-1; [5]): 142 nM
Klebsiella pneumoniae expressing VIM-1 (IHMA 599644) MITC95 [1]: 50 µM
Serratia marcescens expressing IMP-1 (CL5741) MITC95 [2]: 2.344 µM
Escherichia coli expressing NDM-1 (CLB 30016) MITC95 [3]: 9.375 µM
IC50 (IMP-1; [5]): 76.2 nM

NS(=O)(=O)c1c(C(F)(F)F)ccc(C2CCCc3sc(C(=O)O)nc32)c1-c1nnn[nH]1 (stereo not drawn) [Example 510, 4-(3-Sulfamoyl-2-(1H-tetrazol-5-yl)-4-(trifluoromethyl)phenyl)-4,5,6,7-tetrahydrobenzo[d]thiazole-2-carboxylic acid]
IC50 (VIM-1; [15]): 12.8 nM
IC50 (NDM-1; [10]): 3.42 nM
Klebsiella pneumoniae MITC95 [1, 11]: >200 µM
Serratia marcescens MITC95 [2, 12]: 200 µM
Escherichia coli MITC95 [3, 13]: 50 µM
IC50 (IMP-1; [14]): 47.4 nM

NS(=O)(=O)c1cccc(-c2ccc(C3CCN(C[C@H]4CNCCO4)CC3)cc2)c1-c1nnn[nH]1 [Example 619]
IC50 (VIM-1; [9]): 388 nM
IC50 (NDM-1; [10]): 8.23 nM
Klebsiella pneumoniae MITC95 [1, 11]: 150 µM
Serratia marcescens MITC95 [2, 12]: 0.9766 µM
Escherichia coli MITC95 [3, 13]: 0.7813 µM
IC50 (IMP-1; [14]): 10.8 nM

NS(=O)(=O)c1cccc(C2=CCOCC2)c1-c1nnn[nH]1 [Example 140, 3-(3,6-dihydro-2H-pyran-4-yl)-2-(1H-tetrazol-5-yl)benzenesulfonamide]
IC50 (VIM-1; [4]): 388 nM
IC50 (NDM-1; [5]): 7.68 nM
Klebsiella pneumoniae expressing VIM-1 (IHMA 599644) MITC95 [1]: 50 µM
Serratia marcescens expressing IMP-1 (CL5741) MITC95 [2]: 6.25 µM
Escherichia coli expressing NDM-1 (CLB 30016) MITC95 [3]: 0.5859 µM
IC50 (IMP-1; [5]): 160 nM

CN1CCN(c2ncc(-c3cccc(S(N)(=O)=O)c3-c3nnn[nH]3)cn2)CC1 [Example 128, 3-(2-(4-methylpiperazin-1-yl)pyrimidin-5-yl)-2-(1H-tetrazol-5-yl)benzenesulfonamide]
IC50 (VIM-1; [4]): 1140 nM
IC50 (NDM-1; [5]): 7.95 nM
Klebsiella pneumoniae expressing VIM-1 (IHMA 599644) MITC95 [1]: >200 µM
Serratia marcescens expressing IMP-1 (CL5741) MITC95 [2]: 9.375 µM
Escherichia coli expressing NDM-1 (CLB 30016) MITC95 [3]: 1.563 µM
IC50 (IMP-1; [5]): 453 nM

NS(=O)(=O)c1cccc(-c2ccc(CN3C[C@H](O)C[C@H]3CO)cc2)c1-c1nnn[nH]1 [Example 387, 4′-{[(2S,4R)-4-hydroxy-2-(hydroxymethyl)pyrrolidin-1-yl]methyl}-2-(1H-tetrazol-5-yl)biphenyl-3-sulfonamide]
IC50 (VIM-1; [16]): 445 nM
IC50 (NDM-1; [17]): 10.6 nM
Klebsiella pneumoniae MITC95 [1, 18]: 100 µM
Serratia marcescens MITC95 [2, 19]: 3.125 µM
Escherichia coli MITC95 [3, 20]: 2.344 µM
IC50 (IMP-1; [21]): 145 nM

NS(=O)(=O)c1cccc(-c2ccc(CNC3CCC(=O)NC3)cc2)c1-c1nnn[nH]1 (stereo not drawn) [Example 375, 4′-{[(6-oxopiperidin-3-yl)amino]methyl}-2-(1H-tetrazol-5-yl)biphenyl-3-sulfonamide]
IC50 (VIM-1; [16]): 533 nM
IC50 (NDM-1; [17]): 6.13 nM
Klebsiella pneumoniae MITC95 [1, 18]: >200 µM
Serratia marcescens MITC95 [2, 19]: 3.125 µM
Escherichia coli MITC95 [3, 20]: 1.563 µM
IC50 (IMP-1; [21]): 97.6 nM

NS(=O)(=O)c1c(C(F)(F)F)ccc(C2CCn3cncc3C2)c1-c1nnn[nH]1 (stereo not drawn) [Example 494, 3-(5,6,7,8-Tetrahydroimidazo[1,5-a]pyridin-7-yl)-2-(1H-tetrazol-5-yl)-6-(trifluoromethyl)benzenesulfonamide]
IC50 (VIM-1; [15]): 0.427 nM
IC50 (NDM-1; [10]): 4.43 nM
Klebsiella pneumoniae MITC95 [1, 11]: 1.563 µM
Serratia marcescens MITC95 [2, 12]: 1.172 µM
Escherichia coli MITC95 [3, 13]: 0.3906 µM
IC50 (IMP-1; [14]): 13 nM

NCCCCCNc1nc2c(-c3cccc(S(N)(=O)=O)c3-c3nnn[nH]3)cccc2s1 [Example 644, 3-[2-(5-aminopentylamino)-1,3-benzothiazol-4-yl]-2-(1H-tetrazol-5-yl)benzenesulfonamide]
IC50 (VIM-1; [9]): 13.8 nM
IC50 (NDM-1; [10]): 1.34 nM
Klebsiella pneumoniae MITC95 [1, 11]: 75 µM
Serratia marcescens MITC95 [2, 12]: 37.5 µM
Escherichia coli MITC95 [3, 13]: 4.688 µM
IC50 (IMP-1; [14]): 32.4 nM

NS(=O)(=O)c1c(Cl)ccc(-c2ccc(C3CCNCC3)cc2)c1-c1nn[nH]n1 [Example 276, 4-chloro-4′-(piperidin-4-yl)-2-(2H-tetrazol-5-yl)-[1,1′-biphenyl]-3-sulfonamide]
IC50 (VIM-1; VIM-1 IC50, VIM-1 enzyme, CCF2-FA fluorescence assay): 3.38 nM
IC50 (NDM-1; [17]): 5.51 nM
Klebsiella pneumoniae MITC95 [1, 18]: 1.563 µM
Serratia marcescens MITC95 [2, 19]: 0.3906 µM
Escherichia coli MITC95 [3, 20]: 0.7813 µM
IC50 (IMP-1; [21]): 8.75 nM

NS(=O)(=O)c1cccc(-c2ccc(CNCc3nn[nH]n3)cc2)c1-c1nnn[nH]1 [Example 381, 2-(1H-tetrazol-5-yl)-4′-{[(2H-tetrazol-5-ylmethyl)amino]methyl}biphenyl-3-sulfonamide]
IC50 (VIM-1; [16]): 357 nM
IC50 (NDM-1; [17]): 2.25 nM
Klebsiella pneumoniae MITC95 [1, 18]: 50 µM
Serratia marcescens MITC95 [2, 19]: 0.7813 µM
Escherichia coli MITC95 [3, 20]: 1.563 µM
IC50 (IMP-1; [21]): 25.4 nM

NC1CCC(c2ccc(-c3ccc(C4CCNCC4)cc3)c(-c3nn[nH]n3)c2S(N)(=O)=O)CC1 (stereo not drawn) [Example 459, 4-(4-aminocyclohexyl)-4′-(piperidin-4-yl)-2-(2H-tetrazol-5-yl)-[1,1′-biphenyl]-3-sulfonamide]
IC50 (VIM-1; [16]): 112 nM
IC50 (NDM-1; [17]): 1120 nM
Klebsiella pneumoniae MITC95 [1, 18]: 3.125 µM
Serratia marcescens MITC95 [2, 19]: 1.172 µM
Escherichia coli MITC95 [3, 20]: 6.25 µM
IC50 (IMP-1; [21]): 86.6 nM

NC1CCCC12CCN(c1ccc(C(F)(F)F)c(S(N)(=O)=O)c1-c1nnn[nH]1)CC2 (stereo not drawn) [Example 761, 3-(1-amino-8-azaspiro[4.5]dec-8-yl)-2-(1H-tetrazol-5-yl)-6-(trifluoromethyl) benzenesulfonamide]
IC50 (VIM-1; [4]): 48.3 nM
IC50 (NDM-1; [5]): 46 nM
Klebsiella pneumoniae MITC95 [1, 6]: >200 µM
Serratia marcescens MITC95 [2, 7]: 100 µM
Escherichia coli MITC95 [3, 8]: 100 µM
IC50 (IMP-1; [5]): 104 nM

NC1(CNC2CCC(c3ccc(C(F)(F)F)c(S(N)(=O)=O)c3-c3nnn[nH]3)CC2)CC1 (stereo not drawn) [Example 830, 3-[4-[(1-aminocyclopropyl)methylamino]cyclohexyl]-2-(1H-tetrazol-5-yl)-6-(trifluoromethyl)benzenesulfonamide]
IC50 (VIM-1; [4]): 0.247 nM
IC50 (NDM-1; [5]): 1.93 nM
Klebsiella pneumoniae MITC95 [1, 6]: 0.8542 µM
Serratia marcescens MITC95 [2, 7]: 0.724 µM
Escherichia coli MITC95 [3, 8]: 0.25 µM
IC50 (IMP-1; [5]): 3.82 nM
